Measurements reported in US9072703B2 (Ipsen Pharma S.A.S., priority 2008, dated 2015).
Non-standard residues stand in square brackets, D forms with d. Residues, ends and D or L forms follow the SMILES beside them. Ac5c = NC1(C(=O)O)CCCC1

Experiments:
[1] = Human plasma half-life assay; assay type: in vitro ADME; details: 37° C., LC-MS, read-out: Human Plasma T½ (converted)
Protocol: (§1) B. Human and Rat Plasma Half-Life Assay
(§2) 50 μL was removed at various times, like at 0, 1, 2, 3, 4, 8, 24, 32, 48, 56, 72 hours, mixed with 5 μL formic acid and 150 μL acetonitrile in a microcentrifuge tube, vertexed, and centrifuged for 10 minutes at 10K rpm. The supernatant was transferred to an injection vial and analyzed by LC-MS. The LC-MS system consisted of an API4000 mass spectrometer with an ESI probe. Positive ion mode and full scan detection were used. HPLC separation was carried out on a Luna 3μ C8 (2), 2×30 mm column with a gradient from 90% A to 90% B in 10 minutes at a flow rate of 0.3 ml/min. Buffer A was 1% formic acid in water and buffer B was 1% formic acid acetonitrile.

[2] = Rat plasma half-life assay; assay type: in vitro ADME; details: 37° C., LC-MS, read-out: Rat Plasma T½ (converted)
Protocol: as §1, §2

Row | Compound | half-life at 0.1 mg/ml [1] [h] | half-life at 0.1 mg/ml [2] [h]
1 | CCCC[C@H](NC(=O)[C@H](C)NC(=O)[C@@H](NC(=O)C1(NC(=O)[C@H](Cc2ccc(O)cc2)NC(=O)[C@H](CC(=O)O)NC(=O)[C@H](CO)NC(=O)[C@@H](NC(=O)[C@H](Cc2ccccc2)NC(=O)[C@@H](NC(=O)CNC(=O)[C@H](CCC(=O)O)NC(=O)[C@H](C)NC(=O)[C@@H](N)Cc2ccc(O)cc2)[C@@H](C)O)[C@@H](C)CC)CCCC1)[C@@H](C)CC)C(=O)N[C@@H](CC(=O)O)C(=O)N[C@@H](CCCCN)C(=O)N[C@H](C(=O)N[C@@H](Cc1c[nH]cn1)C(=O)N[C@@H](CCC(N)=O)C(=O)N[C@@H](CCC(N)=O)C(=O)N[C@@H](CC(=O)O)C(=O)N[C@@H](Cc1ccccc1)C(=O)N[C@H](C(=O)N[C@@H](CC(N)=O)C(=O)N[C@@H](Cc1c[nH]c2ccccc12)C(=O)N[C@@H](CC(C)C)C(=O)N[C@@H](CC(C)C)C(=O)N[C@@H](C)C(=O)N[C@@H](CCC(N)=O)C(=O)N[C@@H](CCCCN)C(=O)NCC(=O)N[C@@H](CCCCN)C(=O)N[C@@H](CCCCN)C(=O)N[C@@H](CC(N)=O)C(=O)N[C@@H](CC(=O)O)C(=O)N[C@@H](Cc1c[nH]c2ccccc12)C(=O)N[C@@H](CCCCN)C(=O)N[C@@H](Cc1c[nH]cn1)C(=O)N[C@@H](CC(N)=O)C(=O)N[C@H](C(=O)N[C@H](C(=O)N[C@@H](CCC(N)=O)C(=O)N[C@@H](Cc1c[nH]cn1)C(=O)O)[C@@H](C)O)[C@@H](C)CC)C(C)C)[C@@H](C)CC [Example 21, (A5c^11, Nle^14, His^43)hGIP(1-43)-OH] | 11.1 | 2.8
2 | CC[C@H](C)[C@H](NC(=O)[C@H](CCCCN)NC(=O)[C@H](CC(=O)O)NC(=O)[C@H](CCSC)NC(=O)[C@H](C)NC(=O)[C@@H](NC(=O)C1(NC(=O)[C@H](Cc2ccc(O)cc2)NC(=O)[C@H](CC(=O)O)NC(=O)[C@H](CO)NC(=O)[C@@H](NC(=O)[C@H](Cc2ccccc2)NC(=O)[C@@H](NC(=O)CNC(=O)[C@H](CCC(=O)O)NC(=O)[C@H](C)NC(=O)[C@@H](N)Cc2ccc(O)cc2)[C@@H](C)O)[C@@H](C)CC)CCCC1)[C@@H](C)CC)C(=O)N[C@@H](Cc1c[nH]cn1)C(=O)N[C@@H](CCC(N)=O)C(=O)N[C@@H](CCC(N)=O)C(=O)N[C@@H](CC(=O)O)C(=O)N[C@@H](Cc1ccccc1)C(=O)N[C@H](C(=O)N[C@@H](CC(N)=O)C(=O)N[C@@H](Cc1c[nH]c2ccccc12)C(=O)N[C@@H](CC(C)C)C(=O)N[C@@H](CC(C)C)C(=O)N[C@@H](C)C(=O)N[C@@H](CCC(N)=O)C(=O)N[C@@H](CCCCN)C(N)=O)C(C)C [Example 28, (A5c^11)hGIP(1-30)-NH2] (H-YAEGTFISDY[Ac5c]IAMDKIHQQDFVNWLLAQK-NH2; N-terminus assumed) | 6.6 | 2.4
3 | CC[C@H](C)[C@H](NC(=O)[C@H](CCCCN)NC(=O)[C@H](CC(=O)O)NC(=O)[C@H](CCSC)NC(=O)[C@H](C)NC(=O)[C@@H](NC(=O)C1(NC(=O)[C@H](Cc2ccc(O)cc2)NC(=O)[C@H](CC(=O)O)NC(=O)[C@H](CO)NC(=O)[C@@H](NC(=O)[C@H](Cc2ccccc2)NC(=O)[C@@H](NC(=O)CNC(=O)[C@H](CCC(=O)O)NC(=O)[C@H](C)NC(=O)[C@@H](N)Cc2ccc(O)cc2)[C@@H](C)O)[C@@H](C)CC)CCCC1)[C@@H](C)CC)C(=O)N[C@@H](Cc1c[nH]cn1)C(=O)N[C@@H](CCC(N)=O)C(=O)N[C@@H](CCC(N)=O)C(=O)N[C@@H](CC(=O)O)C(=O)N[C@@H](Cc1ccccc1)C(=O)N[C@H](C(=O)N[C@@H](CC(N)=O)C(=O)N[C@@H](Cc1c[nH]c2ccccc12)C(=O)N[C@@H](CC(C)C)C(=O)N[C@@H](CC(C)C)C(=O)N[C@@H](C)C(=O)N[C@@H](CCC(N)=O)C(=O)N[C@@H](CCCCN)C(=O)N[C@@H](Cc1c[nH]cn1)C(N)=O)C(C)C [Example 29, (A5c^11, His^31)hGIP(1-31)-NH2] (H-YAEGTFISDY[Ac5c]IAMDKIHQQDFVNWLLAQKH-NH2; N-terminus assumed) | 7.2 | 7.5
4 | CC[C@H](C)[C@H](NC(=O)[C@H](CCCCN)NC(=O)[C@H](CC(=O)O)NC(=O)C1(NC(=O)[C@H](C)NC(=O)[C@@H](NC(=O)C2(NC(=O)[C@H](Cc3ccc(O)cc3)NC(=O)[C@H](CC(=O)O)NC(=O)[C@H](CO)NC(=O)[C@@H](NC(=O)[C@H](Cc3ccccc3)NC(=O)[C@@H](NC(=O)CNC(=O)[C@H](CCC(=O)O)NC(=O)[C@H](C)NC(=O)[C@@H](N)Cc3ccc(O)cc3)[C@@H](C)O)[C@@H](C)CC)CCCC2)[C@@H](C)CC)CCCC1)C(=O)N[C@@H](Cc1c[nH]cn1)C(=O)N[C@@H](CCC(N)=O)C(=O)N[C@@H](CCC(N)=O)C(=O)N[C@@H](CC(=O)O)C(=O)N[C@@H](Cc1ccccc1)C(=O)N[C@H](C(=O)N[C@@H](CC(N)=O)C(=O)N[C@@H](Cc1c[nH]c2ccccc12)C(=O)N[C@@H](CC(C)C)C(=O)N[C@@H](CC(C)C)C(=O)N[C@@H](C)C(=O)N[C@@H](CCC(N)=O)C(=O)N[C@@H](CCCCN)C(N)=O)C(C)C [Example 30, (A5c^11, 14)hGIP(1-30)-NH2] (H-YAEGTFISDY[Ac5c]IA[Ac5c]DKIHQQDFVNWLLAQK-NH2; N-terminus assumed) | 6.2 | 13.6
5 | CC[C@H](C)[C@H](NC(=O)[C@H](CCCCN)NC(=O)[C@H](CC(=O)O)NC(=O)[C@H](CCSC)NC(=O)[C@H](C)NC(=O)[C@@H](NC(=O)C1(NC(=O)[C@H](Cc2ccc(O)cc2)NC(=O)[C@H](CC(=O)O)NC(=O)[C@H](CO)NC(=O)[C@@H](NC(=O)[C@H](Cc2ccccc2)NC(=O)[C@@H](NC(=O)CNC(=O)[C@H](CCC(=O)O)NC(=O)[C@H](C)NC(=O)[C@@H](N)Cc2ccc(O)cc2)[C@@H](C)O)[C@@H](C)CC)CCCC1)[C@@H](C)CC)C(=O)N[C@@H](Cc1c[nH]cn1)C(=O)N[C@@H](CCC(N)=O)C(=O)N[C@@H](CCC(N)=O)C(=O)N[C@@H](CC(=O)O)C(=O)N[C@@H](Cc1ccccc1)C(=O)N[C@H](C(=O)N[C@@H](CC(N)=O)C(=O)N[C@@H](Cc1c[nH]c2ccccc12)C(=O)N[C@@H](CC(C)C)C(=O)N[C@@H](CC(C)C)C(=O)N[C@@H](C)C(=O)N[C@@H](CCC(N)=O)C(=O)N[C@@H](CCCCN)C(=O)NCC(=O)N[C@@H](CCCCN)C(=O)N[C@@H](CS)C(=O)N[C@@H](CC(N)=O)C(=O)N[C@@H](CC(=O)O)C(=O)N[C@@H](Cc1c[nH]c2ccccc12)C(=O)N[C@@H](CCCCN)C(=O)N[C@@H](Cc1c[nH]cn1)C(=O)N[C@@H](CC(N)=O)C(=O)N[C@H](C(=O)NC1(C(=O)N[C@@H](CCC(N)=O)C(N)=O)CCCC1)[C@@H](C)CC)C(C)C [Example 32, (A5c^11, 41, Cys^33)hGIP(1-42)-NH2] | 11.5 | 8.8
6 | CCCCCCCCCCCC(=O)NCCC[C@H](NC(=O)CNC(=O)[C@H](CCCCN)NC(=O)[C@H](CCC(N)=O)NC(=O)[C@H](C)NC(=O)[C@H](CC(C)C)NC(=O)[C@H](CC(C)C)NC(=O)[C@H](Cc1c[nH]c2ccccc12)NC(=O)[C@H](CC(N)=O)NC(=O)[C@@H](NC(=O)[C@H](Cc1ccccc1)NC(=O)[C@H](CC(=O)O)NC(=O)[C@H](CCC(N)=O)NC(=O)[C@H](CCC(N)=O)NC(=O)[C@H](Cc1c[nH]cn1)NC(=O)[C@@H](NC(=O)[C@H](CCCCN)NC(=O)[C@H](CC(=O)O)NC(=O)[C@H](CCSC)NC(=O)[C@H](C)NC(=O)[C@@H](NC(=O)C1(NC(=O)[C@H](Cc2ccc(O)cc2)NC(=O)[C@H](CC(=O)O)NC(=O)[C@H](CO)NC(=O)[C@@H](NC(=O)[C@H](Cc2ccccc2)NC(=O)[C@@H](NC(=O)CNC(=O)[C@H](CCC(=O)O)NC(=O)[C@H](C)NC(=O)[C@@H](N)Cc2ccc(O)cc2)[C@@H](C)O)[C@@H](C)CC)CCCC1)[C@@H](C)CC)[C@@H](C)CC)C(C)C)C(=O)N[C@@H](CCCCN)C(=O)N[C@@H](CC(N)=O)C(=O)N[C@@H](CC(=O)O)C(=O)N[C@@H](Cc1c[nH]c2ccccc12)C(=O)N[C@@H](CCCCN)C(=O)N[C@@H](Cc1c[nH]cn1)C(=O)N[C@@H](CC(N)=O)C(=O)N[C@H](C(=O)N[C@H](C(=O)N[C@@H](CCC(N)=O)C(=O)N[C@@H](Cc1c[nH]cn1)C(=O)O)[C@@H](C)O)[C@@H](C)CC [Example 34, [A5c^11, Orn^32(N—C(O)—(CH2)10—CH3), His^43]hGIP(1-43)-OH] | 7.5 | 20.1
7 | CCCCCCCCCCCC(=O)NCCC[C@H](NC(=O)[C@H](CCCCN)NC(=O)CNC(=O)[C@H](CCCCN)NC(=O)[C@H](CCC(N)=O)NC(=O)[C@H](C)NC(=O)[C@H](CC(C)C)NC(=O)[C@H](CC(C)C)NC(=O)[C@H](Cc1c[nH]c2ccccc12)NC(=O)[C@H](CC(N)=O)NC(=O)[C@@H](NC(=O)[C@H](Cc1ccccc1)NC(=O)[C@H](CC(=O)O)NC(=O)[C@H](CCC(N)=O)NC(=O)[C@H](CCC(N)=O)NC(=O)[C@H](Cc1c[nH]cn1)NC(=O)[C@@H](NC(=O)[C@H](CCCCN)NC(=O)[C@H](CC(=O)O)NC(=O)[C@H](CCSC)NC(=O)[C@H](C)NC(=O)[C@@H](NC(=O)C1(NC(=O)[C@H](Cc2ccc(O)cc2)NC(=O)[C@H](CC(=O)O)NC(=O)[C@H](CO)NC(=O)[C@@H](NC(=O)[C@H](Cc2ccccc2)NC(=O)[C@@H](NC(=O)CNC(=O)[C@H](CCC(=O)O)NC(=O)[C@H](C)NC(=O)[C@@H](N)Cc2ccc(O)cc2)[C@@H](C)O)[C@@H](C)CC)CCCC1)[C@@H](C)CC)[C@@H](C)CC)C(C)C)C(=O)N[C@@H](CC(N)=O)C(=O)N[C@@H](CC(=O)O)C(=O)N[C@@H](Cc1c[nH]c2ccccc12)C(=O)N[C@@H](CCCCN)C(=O)N[C@@H](Cc1c[nH]cn1)C(=O)N[C@@H](CC(N)=O)C(=O)N[C@H](C(=O)N[C@H](C(=O)N[C@@H](CCC(N)=O)C(=O)N[C@@H](Cc1c[nH]cn1)C(=O)O)[C@@H](C)O)[C@@H](C)CC [Example 35, [A5c^11, Orn^33(N—C(O)—(CH2)10—CH3), His^43]hGIP(1-43)-OH] | 9.5 | 17
